Laboratory results published in PubChem BioAssay AID463204 (Broad Institute, 2010).
Calls of active or inactive are those of the source.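 Rule for the calls: active = AC50 no more than ten times the top concentration tested, that is within one log above it; inconclusive = flat curve fit with activity between 30% and 70%, or invalid poor fit; inactive = AC50 beyond ten times the top tested dose.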

System: S. cerevisiae Mot1-301 ts growth rescue, BacTiter-Glo ATP luminescence
Experiment: restored Mot1-301 yeast growth at 38.5C – whole organism, S. cerevisiae, Mot1-301 ts mutant, luminescence, dose retest, SUMOylation pathway inhibitor project, confirmation (AID 463204);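 note: growth at restrictive 38.5 degrees C of Mot1-301 OY566 strain; actives raise luminescence by restoring growth of the ts mutant at high temperature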

| Structure (SMILES) | AC50 |
| --- | --- |
| N#Cc1ccc(Oc2ccc(S(=O)(=O)N3CCCCC3)cn2)cc1 | > 42 µM (inactive) |
| CN(c1ccccc1)c1ccc(/C=C/[N+](=O)[O-])cc1 | 5.85 µM |
| CCN1CCN(C(=O)c2ccc3nc(-c4ccccc4)c(-c4ccccc4)nc3c2)CC1 | > 42 µM (inactive) |
| Cn1c(-c2ccc3c(c2)OCO3)cnc1NC(=O)CCC(=O)NCCc1ccccc1 | > 42 µM (inactive) |
| CCc1cc2c(=O)c(-c3nc4ccccc4n3C)c(C)oc2c(CN2CCOCC2)c1O | > 42 µM (inactive) |
| Cn1c(=O)[nH]c(=O)c2c1nc(Sc1ccccc1)n2CCc1ccccc1 | > 42 µM (inactive) |
| Cc1cc(C)c(S(=O)(=O)NCC(c2cccnc2)N2CCN(Cc3ccccc3)CC2)c(C)c1 (configuration not stated) | > 42 µM (inactive) |
| O=C(Nc1ccc2c(c1)oc1ccccc12)C1CC1 | > 42 µM (inactive) |
| CCN(CC)/C(=N\S(=O)(=O)c1ccc(F)cc1)c1ccccc1 | > 21 µM (inactive) |
| c1ccc(N2CCN(C3CCSC3)CC2)cc1 (configuration not stated) | > 42 µM (inactive) |
| Cc1ccc(C)c(N2CCN(C(c3ccncc3)c3nnnn3Cc3ccccc3)CC2)c1 (configuration not stated) | > 21 µM (inactive) |
| Cc1sc2nc(SCC(=O)NCCOCCO)n(C)c(=O)c2c1C | > 42 µM (inactive) |
| Cc1c(N=Cc2cc(Br)cc(Br)c2O)cccc1C(=O)O | 3.14 µM |
| CCN1CSC(=S)N(Cc2ccc(OC)cc2)C1 | 4.01 µM |
| COc1cc(/C=N/NC(=S)NCc2ccco2)cc(OC)c1OC | > 42 µM (inactive) |
| O=c1cnc2ccccc2n1Cc1ccccc1C(F)(F)F | > 42 µM (inactive) |
| O=c1cnc2cc([N+](=O)[O-])ccc2[nH]1 | > 42 µM (inactive) |
| CS(=O)(=O)N1CCCC(C(=O)NCc2ccco2)C1 (configuration not stated) | > 42 µM (inactive) |
| CCN1C(=O)c2cccc3c(S(=O)(=O)Nc4ccc(OC)cc4OC)ccc1c23 | > 42 µM (inactive) |
| CN(C)c1ccc(NS(=O)(=O)c2cccc(Cl)c2)cc1 | > 42 µM (inactive) |
| CC(=O)Nc1cccc(OCC(=O)NS(=O)(=O)c2ccc(C)cc2)c1 | > 42 µM (inactive) |
| N#CC1=C(N)Oc2c(ccc3ccccc23)C1c1cccs1 (configuration not stated) | > 42 µM (inactive) |
| COCCN1C(=O)/C(=C/c2cc3c(cc2Br)OCO3)NC1=S | > 42 µM (inactive) |
| COc1ccc(NC(=O)c2cc(C)no2)cc1Cl | > 42 µM (inactive) |
| COc1ccccc1NC(=O)N1CCN(C(=O)Nc2ccccc2OC)CC1 | > 42 µM (inactive) |
| Nc1nc2ccccc2cc1-c1cccs1 | > 42 µM (inactive) |

| Structure (SMILES) | AC50 |
| --- | --- |
| CN(C)C(=O)CCN1CCOCC1 | > 42 µM (inactive) |
| COc1ccc(OC)c2c(N)c(C#N)c(C(F)(F)C(F)(F)F)nc12 | > 42 µM (inactive) |
| COc1cccc(C2CC(c3cccc(NS(C)(=O)=O)c3)=NN2C(=O)c2ccccc2)c1OC (configuration not stated) | > 42 µM (inactive) |
| CCC(CC)NC(=O)c1oc2ccccc2c1COc1ccccc1 | > 42 µM (inactive) |
| Cc1ccccc1OCc1nc(-c2ccccc2)no1 | > 42 µM (inactive) |
| C/C(CC(=O)Nc1cccnc1)=N\NC(=O)C(C)Oc1ccc(Cl)cc1Cl (configuration not stated) | > 42 µM (inactive) |
| O=C1CN(C(=O)COC(=O)c2ccccc2NCc2ccco2)c2ccccc2N1 | > 42 µM (inactive) |
| C/C(=N\NC(=O)c1ccc(Cl)cc1)c1cccnc1 | > 42 µM (inactive) |
| c1ccc(-c2cc3cc4c(cc3cn2)OCO4)cc1 | 11.7 µM |
| CC(=Nc1ccccc1)C1=C(O)CC(C)(C)CC1=O | > 42 µM (inactive) |
| O=C(OCC(=O)N1CCN(Cc2ccccc2)CC1)c1ccc(Cl)cc1 | > 42 µM (inactive) |
| Cc1nc(CCNC(=O)c2ccccc2)cs1 | > 42 µM (inactive) |
| O=S(=O)(Cc1ccccc1)NCc1ccccn1 | > 42 µM (inactive) |
| O=C(CSc1nnc2ccccn12)NNC(=O)c1ccc(Cl)cc1 | > 42 µM (inactive) |
| O=C(C1CCCN(S(=O)(=O)c2cnc[nH]2)C1)N1CCN(c2ccc(Cl)cc2)CC1 (configuration not stated) | > 42 µM (inactive) |
| Clc1ccccc1C(c1ccccc1)(c1ccccc1)n1ccnc1 | 3.47 µM |
| COc1ccc(NC(=O)CN(C)C(=O)c2cc(C)on2)cc1 | > 42 µM (inactive) |
| CCOC(=O)C(NC(=O)c1ccccc1)(N1CCOCC1)C(F)(F)F (configuration not stated) | > 42 µM (inactive) |
| CC(C)c1cccc(OCCCCN(C)C)c1 | > 42 µM (inactive) |
| c1ccc2cc(Cn3ccnc3)ccc2c1 | > 42 µM (inactive) |
| CCC1CCCCN1C(=O)CSc1nc2c([nH]c3ccccc32)c(=O)n1C (configuration not stated) | > 42 µM (inactive) |
| Cc1occc1-c1nnc(SCC(=O)N2CCN(c3ccccc3)CC2)n1C | > 42 µM (inactive) |
| CCN(CC)C(=O)CSc1nnc(CNc2ccc(F)cc2)n1Cc1ccco1 | > 42 µM (inactive) |
| COc1ccc2c(CC(=O)Nc3ccc(OC)c(NS(=O)(=O)c4ccc(F)cc4)c3)coc2c1 | > 42 µM (inactive) |
| COC(=O)c1sccc1NC(=O)CC1C(=O)NCCN1C(=O)Nc1ccc(F)cc1F (configuration not stated) | > 42 µM (inactive) |
| Cc1cc(C)c2c(=O)[nH]cnc2n1 | > 42 µM (inactive) |

| Structure (SMILES) | AC50 |
| --- | --- |
| CC1CN=C(NCc2ccccc2)S1 (configuration not stated) | > 42 µM (inactive) |
| CCOC(=O)c1c(C)[nH]c(O)c1C=Nc1ccccc1 | > 42 µM (inactive) |
| O=C(Nc1ccccc1F)C1CCN(C(=O)Cc2ccccc2)CC1 | > 42 µM (inactive) |
| COc1cccc(N=Nc2c(=O)[nH]n3c(=O)cc(C)[nH]c23)c1 | > 42 µM (inactive) |
| Cc1ccc(-c2noc(C3CCCN(S(=O)(=O)c4ccc5ccccc5c4)C3)n2)o1 (configuration not stated) | > 42 µM (inactive) |
| COc1ccc(S(=O)(=O)NCC(=O)N(CC(=O)NCC2CCCO2)c2ccccc2C)cc1 (configuration not stated) | > 42 µM (inactive) |
| COC(=O)c1ccc(Cl)c(NC(=O)CN(c2ccc(OC)c(OC)c2)S(C)(=O)=O)c1 | > 42 µM (inactive) |
| Cc1cc(C)cc(C(=O)NC(CC(N)=O)c2ccc(NCCN3CCOCC3)c([N+](=O)[O-])c2)c1 (configuration not stated) | > 42 µM (inactive) |
| COc1cc2c(cc1OC)CN(S(=O)(=O)c1cccc(F)c1)CC2 | > 42 µM (inactive) |
| COC(=O)CN(C(=S)Nc1ccc(F)cc1)C1CC(=O)N(c2ccccc2)C1=O (configuration not stated) | > 42 µM (inactive) |
| CCOC(=O)C1C(=O)NC(SCC(=O)Nc2nccs2)=C(C#N)C1c1ccccc1OCC (configuration not stated) | > 42 µM (inactive) |
| Cc1cccc(N2CN=c3s/c(=C\c4ccccn4)c(=O)n3C2)c1 | > 42 µM (inactive) |
| COC(=O)C1CN(C#N)N(c2ccc(Cl)cc2)C12c1ccccc1-c1ccccc12 (configuration not stated) | 0.74 µM |
| CC(Oc1ccccc1)C(=O)Nc1ccccc1O (configuration not stated) | > 42 µM (inactive) |
| CCCN1CCN(CCCNC(=O)CCn2nc(-c3ccccc3)ccc2=O)CC1 | > 42 µM (inactive) |
| CCN(CC)C(=O)CSc1nnc(SCc2ccc(Cl)cc2)s1 | > 42 µM (inactive) |
| CCC1(CC)NC(=O)N(CC(=O)N2N=C(c3ccc(Cl)cc3)CC2c2ccco2)C1=O (configuration not stated) | > 42 µM (inactive) |
| Cc1ccc(C(=O)O)cc1[N+](=O)[O-] | > 42 µM (inactive) |
| CCN(CC)CCNc1ncnc2c1[nH]c1ccc(OC)cc12 | > 42 µM (inactive) |
| Cc1cc(-c2ccc(Cl)cc2Cl)c(C#N)c(=O)[nH]1 | > 42 µM (inactive) |
| Cc1nc(N2CCN(c3ccccn3)CC2)c2c(C)c(C(=O)N3CCN(c4ccccc4F)CC3)sc2n1 | > 42 µM (inactive) |
| Clc1cc(Br)ccc1OCCOCCN1CCOCC1 | > 42 µM (inactive) |
| CCc1ccc(NC(=O)N2CCC(c3ccccc3)C2)cc1 (configuration not stated) | > 42 µM (inactive) |
| CCC(=O)Nc1ccc(S(=O)(=O)NCc2ccco2)cc1 | > 42 µM (inactive) |
| O=c1c2ccccc2nc(COc2ccccc2)n1/N=C/c1cn[nH]c1-c1ccccc1 | > 42 µM (inactive) |
| CC(=O)N1CCc2cc(S(=O)(=O)CCC(=O)N3CCN(C(=O)c4ccco4)CC3)ccc21 | > 42 µM (inactive) |

| Structure (SMILES) | AC50 |
| --- | --- |
| COc1cccc(NC(=O)CNC(=O)c2ccc(C)cc2)c1 | > 42 µM (inactive) |
| CCC(C)NCCOc1ccccc1C (configuration not stated) | > 42 µM (inactive) |
| COc1ccc(/C=N/NC(=O)c2nnn(-c3nonc3N)c2-c2cccs2)cc1OC | > 42 µM (inactive) |
| CC(C)CC(=O)Nc1ccc(C(=O)CN2C(=O)NC3(CCOc4ccccc43)C2=O)cc1 (configuration not stated) | > 42 µM (inactive) |
| CCN1C(=O)N(c2ccc(Cl)cc2)C(C)=CC1(C)C | > 42 µM (inactive) |
| CCC1(CC)NC(=O)N(CC(=O)OCC(=O)NC(=O)c2ccccc2)C1=O | > 42 µM (inactive) |
| c1ccc2c(c1)[nH]c1c(N3CCN(C4CCCCC4)CC3)ncnc12 | > 42 µM (inactive) |
| S=c1[nH]nc(-c2ccco2)n1-c1ccc(Br)cc1 | > 42 µM (inactive) |
| Cn1c(-c2sc3cc(C(F)(F)F)cnc3c2-c2cccs2)n[nH]c1=S | > 42 µM (inactive) |
| Cc1cnc(NC(=O)CSc2nc3ccccc3s2)s1 | > 42 µM (inactive) |
| CN(C)c1cccc(C(=O)Nc2cc(C(F)(F)F)ccc2-n2cnc3ccccc32)c1 | > 42 µM (inactive) |
| Cc1c(C2(O)CCCCC2)[nH]c2ccc(C#N)cc12 | 41.9 µM |
| COC(=O)c1[nH]c2cc(C)ccc2c1NC(=O)CN1CCN(c2ccccc2OC)CC1 | > 21 µM (inactive) |
| O=C(Nc1cccc(C(=O)Nc2ccc(F)cc2F)c1)c1ccccc1 | > 42 µM (inactive) |
| COc1ccc(C)cc1S(=O)(=O)N1CCC(C(=O)NCCc2ccccc2)CC1 | > 42 µM (inactive) |
| Cc1c(C)c2c(c(C)c1O)CCC(C)(C(=O)O)O2 (configuration not stated) | > 42 µM (inactive) |
| COc1cc(C(C2=C(O)CC(C)(C)CC2=O)C2C(=O)CC(C)(C)CC2=O)cc(OC)c1OC (configuration not stated) | > 42 µM (inactive) |
| Cc1cc(C)cc(OCC(=O)NC2CCCc3ccccc32)c1 (configuration not stated) | > 42 µM (inactive) |
| COc1ccc(Oc2c(C)oc3cc(OC(=O)N(C)C)ccc3c2=O)cc1 | > 42 µM (inactive) |
| COc1ccc(OC(=O)c2ccc(Cl)cc2)c(C(C)=O)c1 | > 42 µM (inactive) |
| Cc1ccc(NC(=O)CN2CCN(CCN=CC3=C(O)CC(C)(C)CC3=O)CC2)cc1 | > 42 µM (inactive) |
| CC(C)CCn1c(C(C)O)nc2ccccc21 (configuration not stated) | > 42 µM (inactive) |
| CCCNC(=O)CN(c1ccc(F)cc1)S(=O)(=O)c1ccc2c(c1)OCCO2 | > 42 µM (inactive) |
| CN(C)C(/C=C/Nc1cccc(Br)c1)=C(C#N)C#N | > 42 µM (inactive) |
